The subject of the data set is ApoE mouse. Description: PET imaging of [^18F]NP-59 in a control BL6 mouse and an ApoE mouse. Type of data set: in vivo. The protocol:
[^18F]NP-59 was injected into a control BL6 mouse and an ApoE mouse of similar weight. Equivalent activities were injected into each mouse, and PET images taken approximately 60 minutes after injection are shown in FIG. 1. The images are PET maximal intensity projection images in the oblique coronal plane to obtain relevant anatomic structures. In the upper right-hand corner of each image are axial images through the carotid artery.

For `CC(C)CCC[C@@H](C)[C@H]1CCC2C3C[C@@H](C[18F])C4=C(CC[C@H](O)C4)C3CC[C@@]21C` (stereo partly drawn) [[^18F]NP-59], the “differential uptake between the mice (PET)” value (ApoE mouse (atherosclerotic disease) vs control BL6 mouse, equivalent activities injected, PET approximately 60 minutes after injection) is “higher uptake in the ApoE mouse”. Further, the “background uptake (PET)” value (ApoE mouse vs BL6 mouse of similar weight, identical amounts of tracer injected) is “higher background uptake”. Moreover, the “organs showing uptake of the compound (PET images)” value (BL6 and ApoE mice, PET approximately 60 minutes after injection) is “uptake of the compound in the liver, adrenal glands, and liver”.

(Values after patent US20210355154A1, “Halogenated Cholesterol Analogues and Methods of Making and Using Same” (THE REGENTS OF THE UNIVERSITY OF MICHIGAN, priority 2018, published 2021).)
